Each structure is given as a SMILES string. Where only a bound is given, the exact number is not on record here.

Results on 17 molecules are retold here after patent US11566007B2, “Ras inhibitors” (Revolution Medicines, Inc., priority 2019, dated 2023).

In assay [1] the test system is NCI-H358 cells (K-Ras G12C). The assay is described as follows: Potency assay: pERK in NCI-H358 cells. The format is cell-based, human. Conditions: Homo sapiens, NCI-H358; H358 KRAS G12C; read-out: pERK EC50. In short, it runs like this:
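4 h cpd, 37 °C; 10-pt 3-fold series, 10 mM DMSO top stock, duplicates. Readout pERK: AlphaLISA SureFire Ultra or In-Cell Western (IR-800CW secondary, DRAQ5 DNA stain). IC50, 4-PL fit vs log conc.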

The target in another assay is K-Ras G13C (Homo sapiens (Human), UniProt P01116+P62937, G13C). The assay is described as follows: Ras-Raf (BRAF RBD) disruption / FRET / MOA assay, KRAS G13C. The format is biochemical. Conditions: KRAS G13C; Ras-Raf disruption/FRET/MOA assay; read-out: IC50* KRAS G13C FRET data. Summed up:
(§1)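 Ras:RAF disruption was scored as a fall in TR-FRET ratio relative to DMSO. Compound ranged in 3-fold steps over 10 points from 30 μM final; incubation ran 3 h at 25° C, detection antibodies a further 1.5 h. Reported as IC50.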

In the next assay the target is KRAS G12V (Homo sapiens (Human), UniProt P01116+P62937, G12V). The assay is described as follows: Ras-Raf (BRAF RBD) disruption / FRET / MOA assay, KRAS G12V. To be noted: read-out: IC50* KRAS G12V FRET data. The format is biochemical. Summed up: as §1
For another assay, the target named is NRAS G12C (Homo sapiens (Human), UniProt P01111+P62937, G12C). The assay is described as follows: Ras-Raf (BRAF RBD) disruption / FRET / MOA assay, NRAS G12C. To be noted: read-out: IC50* NRAS G12C FRET data. The format is biochemical. In short, it runs like this: as §1
The target in a further assay is NRAS WT (Homo sapiens (Human), UniProt P01111+P62937). The assay is described as follows: Ras-Raf (BRAF RBD) disruption / FRET / MOA assay, NRAS WT. Conditions: read-out: IC50* NRAS WT FRET data. The format is biochemical. Summed up: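 TR-FRET disruption of nucleotide-loaded Ras binding to BRAF RBD via compound-driven ternary complex with cyclophilin A. Compound as 10-point 3-fold series from 30 μM final, 3 h at 25° C, then anti-His Eu-W1024 (10 nM) and anti-GST allophycocyanin (50 nM) for 1.5 h. IC50 from decreased FRET ratio versus DMSO.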
NRAS WT, sequence (P01111 whole entry): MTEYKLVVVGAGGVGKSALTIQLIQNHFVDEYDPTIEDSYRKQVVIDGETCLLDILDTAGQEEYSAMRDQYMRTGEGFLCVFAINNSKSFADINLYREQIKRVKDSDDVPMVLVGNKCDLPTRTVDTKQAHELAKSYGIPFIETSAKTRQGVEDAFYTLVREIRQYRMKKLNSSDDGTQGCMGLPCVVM
NRAS WT, sequence (P62937 whole entry): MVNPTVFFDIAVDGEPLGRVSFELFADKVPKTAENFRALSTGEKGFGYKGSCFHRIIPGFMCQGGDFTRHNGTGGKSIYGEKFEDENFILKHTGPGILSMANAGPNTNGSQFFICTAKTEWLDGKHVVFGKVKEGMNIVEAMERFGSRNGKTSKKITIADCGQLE

NRAS G12C, sequence (P01111 whole entry G12C): as the sequence (P01111 whole entry) above, with G12C counted along it
NRAS G12C, sequence (P62937 whole entry): as the sequence (P62937 whole entry) above
KRAS G12V, sequence (P01116-2 other isoform, or with tags, fused parts or gaps G12V): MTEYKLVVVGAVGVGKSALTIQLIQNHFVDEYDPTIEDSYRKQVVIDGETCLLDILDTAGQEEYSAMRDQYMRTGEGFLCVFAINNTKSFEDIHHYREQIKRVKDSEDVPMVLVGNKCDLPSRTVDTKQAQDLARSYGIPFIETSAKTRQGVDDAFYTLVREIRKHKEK
KRAS G12V, sequence (P62937 whole entry): as the sequence (P62937 whole entry) above
K-Ras G13C, sequence (P01116-2 other isoform, or with tags, fused parts or gaps G13C): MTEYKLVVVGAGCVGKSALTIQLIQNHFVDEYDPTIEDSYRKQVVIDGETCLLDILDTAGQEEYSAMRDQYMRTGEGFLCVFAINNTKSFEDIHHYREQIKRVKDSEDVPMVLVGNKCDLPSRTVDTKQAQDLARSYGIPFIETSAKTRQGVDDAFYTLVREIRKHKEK
K-Ras G13C, sequence (P62937 whole entry): as the sequence (P62937 whole entry) above

Regarding `C=CC(=O)N1CC[C@H](C(=O)N(C)[C@H](C(=O)N[C@H]2Cc3cc(cc(C(F)F)c3)-c3ccc4c(c3)c(c(-c3cccnc3[C@H](C)OC)n4CC(F)(F)F)CC(C)(C)COC(=O)[C@@H]3CCCN(N3)C2=O)C(C)C)C1` (atropisomer, axis not shown) [Example A372], in assay [1], the half-maximal effective concentration (EC50) was below 5000 nM. For the same molecule, the IC50 on K-Ras G13C lay in the range of 100 to 1000 nM; at KRAS G12V, 1000 to 10000 nM; on NRAS G12C it was 100 to 1000 nM; on NRAS WT, 1000 to 10000 nM.
For the molecule `C=CC(=O)N1CCO[C@@H]2CN(C(=O)N(C)[C@H](C(=O)N[C@H]3Cc4nc(cs4)-c4ccc5c(c4)c(c(-c4cccnc4[C@H](C)OC)n5CC)CC(C)(C)COC(=O)[C@@H]4CCCN(N4)C3=O)C(C)C)C[C@@H]21` (atropisomer, axis not shown) [Example A714], the EC50 in assay [1] is below 5000 nM. Moreover, the IC50 at K-Ras G13C lay in the range of 10 to 100 nM; on KRAS G12V, 100 to 1000 nM; on NRAS G12C, 100 to 1000 nM; on NRAS WT, 100 to 1000 nM.
On to `CCn1c(-c2cccnc2[C@H](C)OC)c2c3cc(ccc31)N1CCO[C@@H](C[C@H](NC(=O)[C@@H](COC3CCN(C(=O)C#CC(C)(C)N(C)C)CC3)C(C)C)C(=O)N3CCC[C@H](N3)C(=O)OCC(C)(C)C2)C1` (atropisomer, axis not shown) [Example A643, (2R)-2-(((1-(4-(dimethylamino)-4-methylpent-2-ynoyl)piperidin-4-yl)oxy)methyl)-N-((2^2S,6^3S,4S)-1^1-ethyl-1^2-(2-((S)-1-methoxyethyl)pyridin-3-yl)-10,10-dimethyl-5,7-dioxo-6^1,6^2,6^3,6^4,6^5,6^6-hexahydro-1^1H-8-oxa-2(4,2)-morpholina-1(5,3)-indola-6(1,3)-pyridazinacycloundecaphane-4-yl)-3-methylbutanamide], for which the EC50 in assay [1] was below 5000 nM. Besides, the IC50 is 1000 to 10000 nM at K-Ras G13C, above 10000 nM at KRAS G12V, 10 to 100 nM on NRAS G12C and above 10000 nM on NRAS WT.
With `C=CC(=O)N(C)[C@@H]1C[C@H]1N(C)C(=O)N(C)[C@H](C(=O)N[C@H]1Cc2nc(cs2)-c2ccc3c(c2)c(c(-c2cccnc2[C@H](C)OC)n3CC)CC(C)(C)COC(=O)[C@@H]2CCCN(N2)C1=O)C(C)C` (atropisomer, axis not shown) [Example A739], the EC50 in assay [1] is below 5000 nM. For the same molecule, the IC50 is 100 to 1000 nM at K-Ras G13C, 1000 to 10000 nM on KRAS G12V, 100 to 1000 nM at NRAS G12C and 100 to 1000 nM at NRAS WT.
As to `C=CC(=O)N(C)[C@H]1C[C@@H](N(C)C(=O)N(C)[C@H](C(=O)N[C@H]2Cc3nc(cs3)-c3ccc4c(c3)c(c(-c3cccnc3[C@H](C)OC)n4CC)CC(C)(C)COC(=O)[C@@H]3CCCN(N3)C2=O)C(C)C)C1` (atropisomer, axis not shown) [Example A704], the concentration giving a half-maximal response (EC50) in assay [1] is below 5000 nM. Moreover, the half-inhibitory concentration (IC50) was 100 to 1000 nM on K-Ras G13C, 100 to 1000 nM at KRAS G12V, 10 to 100 nM at NRAS G12C and 10 to 100 nM on NRAS WT.
For the molecule `C=CC(=O)N1CCC2(CC1)CCN2C(=O)N(C)[C@H](C(=O)N[C@H]1Cc2nc(cs2)-c2ccc3c(c2)c(c(-c2cccnc2[C@H](C)OC)n3CC)CC(C)(C)COC(=O)[C@@H]2CCCN(N2)C1=O)C(C)C` (atropisomer, axis not shown) [Example A678], the EC50 in assay [1] was below 5000 nM. In addition, the IC50 at K-Ras G13C lay within 100 to 1000 nM; on KRAS G12V it was 100 to 1000 nM; on NRAS G12C, 10 to 100 nM; on NRAS WT, 100 to 1000 nM.
`C=CC(=O)N(C)[C@H]1CC1N(C)C(=O)N(C)[C@H](C(=O)N[C@H]1Cc2nc(cs2)-c2ccc3c(c2)c(c(-c2cccnc2[C@H](C)OC)n3CC)CC(C)(C)COC(=O)[C@@H]2CCCN(N2)C1=O)C(C)C` (stereo partly shown) [Example A738]: the EC50 in assay [1] was below 5000 nM. Besides, the concentration for half-maximal inhibition (IC50) on K-Ras G13C lay in the range of 100 to 1000 nM; on KRAS G12V, 1000 to 10000 nM; on NRAS G12C, 100 to 1000 nM; on NRAS WT, 100 to 1000 nM.
As for `C=CC(=O)N(C)[C@H]1C[C@H](N(C)C(=O)N(C)[C@H](C(=O)N[C@H]2Cc3nc(cs3)-c3ccc4c(c3)c(c(-c3cccnc3[C@H](C)OC)n4CC)CC(C)(C)COC(=O)[C@@H]3CCCN(N3)C2=O)C(C)C)C1` (atropisomer, axis not shown) [Example A712], the EC50 in assay [1] is below 5000 nM. In addition, the concentration for half-maximal inhibition (IC50) at K-Ras G13C is 100 to 1000 nM; at KRAS G12V it was 100 to 1000 nM; on NRAS G12C it was 10 to 100 nM; at NRAS WT it was 10 to 100 nM.
Take `CC#CC(=O)N1CCC(C(=O)N(C)[C@H](C(=O)N[C@H]2Cc3nc(cs3)-c3ccc4c(c3)c(c(-c3cccnc3[C@H](C)OC)n4CC)CC(C)(C)COC(=O)[C@@H]3CCCN(N3)C2=O)C(C)C)C1` (atropisomer, axis not shown) [Example A168]: the 50% effective concentration (EC50) in assay [1] was below 5000 nM. Also, the 50% inhibitory concentration (IC50) at K-Ras G13C, at KRAS G12V, at NRAS G12C and at NRAS WT was 1000 to 10000 nM throughout.
`CCn1c(-c2cccnc2[C@H](C)OC)c2c3cc(ccc31)-c1csc(n1)C[C@H](NC(=O)[C@H](C(C)C)N(C)C(=O)N1CCC3(CC1)CN(C(=O)/C=C/C(F)F)C3)C(=O)N1CCC[C@H](N1)C(=O)OCC(C)(C)C2` (atropisomer, axis not shown) [Example A683]: the EC50 in assay [1] is below 5000 nM. Also, the IC50 on K-Ras G13C is below 10 nM; at KRAS G12V, 100 to 1000 nM; on NRAS G12C, 10 to 100 nM; at NRAS WT, 100 to 1000 nM.
Take `C=CC(=O)N(C)CCN1CCN(C(=O)N(C)[C@H](C(=O)N[C@H]2Cc3nc(cs3)-c3ccc4c(c3)c(c(-c3cccnc3[C@H](C)OC)n4CC)CC(C)(C)COC(=O)[C@@H]3CCCN(N3)C2=O)C(C)C)CC1` (atropisomer, axis not shown) [Example A630]: the EC50 in assay [1] was below 5000 nM. The 50% inhibitory concentration (IC50) at K-Ras G13C was in the range of 10 to 100 nM; on KRAS G12V, 100 to 1000 nM; on NRAS G12C it was 100 to 1000 nM; at NRAS WT, 100 to 1000 nM.
In the case of `C=CC(=O)N1CC[C@H](N(C)C(=O)N(C)[C@H](C(=O)N[C@H]2Cc3nc(cs3)-c3ccc4c(c3)c(c(-c3cccnc3[C@H](C)OC)n4CC)CC(C)(C)COC(=O)[C@@H]3CCCN(N3)C2=O)C(C)C)C1` (atropisomer, axis not shown) [Example A728], the EC50 in assay [1] was below 5000 nM. In addition, the IC50 at K-Ras G13C, on KRAS G12V, at NRAS G12C and at NRAS WT was 100 to 1000 nM in each case.
For the molecule `CO[C@@H](C)c1ncccc1-c1c2c3cc(ccc3n1CC(F)(F)F)-c1csc(n1)C[C@H](NC(=O)[C@H](C(C)C)N(C)C(=O)N1CCN(C(=O)/C=C/CN(C)C)C3(CC3)C1)C(=O)N1CCC[C@H](N1)C(=O)OCC(C)(C)C2` (atropisomer, axis not shown) [Example A664], the concentration for a half-maximal effect (EC50) in assay [1] is below 5000 nM. Moreover, the IC50 on K-Ras G13C lay in the range of 10 to 100 nM; at KRAS G12V, 100 to 1000 nM; at NRAS G12C it was 10 to 100 nM; at NRAS WT it was 10 to 100 nM.
Take `C=CC(=O)N(C)C1CN(C(=O)N(C)[C@H](C(=O)N[C@H]2Cc3nc(cs3)-c3ccc4c(c3)c(c(-c3cccnc3[C@H](C)OC)n4CC)CC(C)(C)COC(=O)[C@@H]3CCCN(N3)C2=O)C(C)C)C1` (atropisomer, axis not shown) [Example A463]: the EC50 in assay [1] was below 5000 nM. Also, the concentration for half-maximal inhibition (IC50) on K-Ras G13C lay in the range of 100 to 1000 nM; at KRAS G12V, 100 to 1000 nM; at NRAS G12C, 10 to 100 nM; on NRAS WT, 100 to 1000 nM.
`CCn1c(-c2cccnc2[C@H](C)OC)c2c3cc(ccc31)-c1cccc(c1)C[C@H](NC(=O)[C@H](C(C)C)N(C)C(=O)N1CCC13CN(C(=O)C#CC(C)(C)N(C)C)C3)C(=O)N1CCC[C@H](N1)C(=O)OCC(C)(C)C2` [Example A672]: the half-maximal effective concentration (EC50) in assay [1] was below 5000 nM. In addition, the 50% inhibitory concentration (IC50) on K-Ras G13C lay within 100 to 1000 nM; on KRAS G12V, 100 to 1000 nM; at NRAS G12C it was 10 to 100 nM; on NRAS WT, 100 to 1000 nM.
Turning to `C=CC(=O)NC[C@H]1CCN1C(=O)N(C)[C@H](C(=O)N[C@H]1Cc2nc(cs2)-c2ccc3c(c2)c(c(-c2cccnc2[C@H](C)OC)n3CC)CC(C)(C)COC(=O)[C@@H]2CCCN(N2)C1=O)C(C)C` (atropisomer, axis not shown) [Example A356], the EC50 in assay [1] was below 5000 nM. In addition, the IC50 at K-Ras G13C lay in the range of 100 to 1000 nM; on KRAS G12V, 1000 to 10000 nM; on NRAS G12C, 100 to 1000 nM; on NRAS WT, 100 to 1000 nM.
Consider `C=CC(=O)N1CCO[C@H]2CN(C(=O)N(C)[C@H](C(=O)N[C@H]3Cc4coc(n4)-c4ccc5c(c4)c(c(-c4cccnc4[C@H](C)OC)n5CC(F)(F)F)CC(C)(C)COC(=O)[C@@H]4CCCN(N4)C3=O)C(C)C)C[C@H]21` (atropisomer, axis not shown) [Example A574], for which, in assay [1], the concentration for a half-maximal effect (EC50) was below 5000 nM. Also, the IC50 fell in the range of 10 to 100 nM at K-Ras G13C, 1000 to 10000 nM at KRAS G12V, 10 to 100 nM at NRAS G12C and 1000 to 10000 nM at NRAS WT.
